Laboratory results from patent US8834843B2, “Imaging method” (GE Healthcare Limited, priority 2007, dated 2014).
Numbered stars: 1 amine (or outer) side, 2 acyl side, 3 side chain; on linkers, the order of the positions; unused ones are H or OH. Bridge positions count the residues as written; N and C are the ends. Side chains are listed from the residue outwards. Peptide text beside a SMILES is read from it. * marks the point of attachment. X1 = C/C(=N\O)C(C)(C)NCCC(CCNC(C)(C)/C(C)=N/O)CCN*; Glutaryl = O=C(CCCC(=O)[*:2])[*:1]; X2 = NC(=O)COCC(=O)NCCOCCOCCOCCN*

Key:
EA-Hy926 membranes = experiment: Competitive binding assay with 125I-echistatin on EA-Hy926 membranes; set-up: species or system human; details: cold compound vs 125I-echistatin, 1 hour at 37° C.; read-out: Ki in the EA-Hy926 membrane assay
Description: The inhibition constant of Compound 6 was measured using a previously-described membrane binding assay (Indrevoll et al, Bioorg & Med Chem Lett, 2006, 16, 6190-6193).
In brief, membranes from the human endothelial adenocarcinoma cell line EA-Hy926 were prepared and the Kd calculated for the purified membrane fraction. A competitive binding assay was then established to measure inhibition constants for cold Compound 6. ^125I-echistatin was used as the labelled ligand and cold echistatin as a reference standard.
A total of sixteen dilutions of cold test compound (either cold echistatin or cold Compound 6) were prepared and mixed with a combination of ^125I-echistatin and membrane prior to incubation for 1 hour at 37° C. Following several washes, the bound material was harvested on a filter using a Skatron micro harvester. The filterspots were finally excised and counted in a Packard γ-counter.
The inhibition constants for Compound 3 and Compound 8 were determined using the method described in Example 1. FIG. 3 illustrates binding of ^125I-echistatin versus cold Compound 3, Compound 8 and echistatin on EA-Hy926 membranes.

[1] = test system: fibrogenic livers in rat BDL model; experiment: Liver uptake (SUV) in BDL vs sham rats at 2-28 days post-operatively; assay type: in vivo; details: 1 hour after tail vein injection
Description: Outbred male Sprague Dawley rats (180-200 g; Charles River) were used in all bile duct ligation (BDL) and sham studies. […] For the BDL animals, the abdomen was shaved and swabbed with betadine solution followed by 5 mg/kg carprofen subcutaneously (s.c.) and 5 mg/kg bupronorphine s.c. and under Isoflurane anaesthesia a mid-line laparotomy was performed and the common bile duct located. Bile duct was double ligated, the first ligation made between the junction of the hepatic ducts and the second above the entrance of the pancreatic ducts. […] Animals were closely monitored for the duration of the experiment. […] At the appropriate time point post-injection of the test item, each animal was re-anaesthetised with isoflurane, sacrificed by cervical dislocation weighed and the weight recorded via a barcode scanning system. Each animal was dissected and the following organs and tissues were removed and counted using BASIL counter protocol 40 or manual counting: The BDL and sham animal models were set up as described in Example 3. Uptake of Compound 8 was calculated as Standard Uptake Value (SUV) as follows: [formula] • Zs=counts per second in sample • Ws=weight of sample in grams • Z1=total counts per second measured in all the samples (excluding the injection site) • W1=weight of animal in grams […]

With `C/C(=N\O)C(C)(C)NCCC(CCNC(=O)CCCC(=O)NCCCC[C@@H]1NC(=O)CSC[C@@H](C(=O)NCCOCCOCCOCCNC(=O)COCC(N)=O)NC(=O)[C@H](Cc2ccccc2)NC(=O)[C@@H]2CSSC[C@H](NC1=O)C(=O)N[C@@H](CCCNC(=N)N)C(=O)NCC(=O)N[C@@H](CC(=O)O)C(=O)N2)CCNC(C)(C)/C(C)=N/O` (some centres unmarked) [Compound 8] ({CH2CO}-K([Glutaryl-X1])CRGDCFC-X2; disulfide 2-6; thioether N-8) the Ki (EA-Hy926 membranes) was 6 nM and the “Liver uptake in BDL rats (in words)” value [1] was “specific uptake”.
